Reference: patent US7476685B2, “Pyridine carboxamide derivatives and their use as pesticides” (Merial Limited, priority 2002, dated 2009)

Assays:
[1] = tested on: black bean aphids (Aphis fabae); assay: Method B: root-systemic action against black bean aphids on field bean, preparation pipetted into the water; assay type: in vivo; details: 10 ppm (content of active compound), 4 ml solution pipetted into bottle with Vicia faba roots, after 3 and 6 days of storage, read-out: mortality among the aphids, by root-systemic action
Procedure: Germinated field bean seeds (Vicia faba) with seed roots were transferred into brown glass bottles filled with tap water. Four milliliters of an aqueous solution of the formulated preparation to be examined were pipetted into the brown glass bottle. The field bean was then heavily populated with about 100 black bean aphids (Aphis fabae). Plants and aphids were then stored in a climatized chamber (16 hours of light/day, 25° C., 40-60% relative atmospheric humidity). After 3 and 6 days of storage, the root-systemic effect of the preparation on the aphids was determined.

[2] = tested on: black bean aphids (Aphis fabae); assay: Method A: field bean plants and black bean aphids dipped into aqueous solution of the formulated preparation; assay type: in vivo; details: 100 ppm (content of active compound), plants (Vicia faba) and aphids dipped 5 seconds, after 3 and 6 days of storage, read-out: mortality among the aphids
Procedure: Germinated field bean seeds (Vicia faba) with seed roots were transferred into brown glass bottles filled with tap water and then populated with about 100 black bean aphids (Aphis fabae). Plants and aphids were then dipped into an aqueous solution of the formulated preparation to be examined for 5 seconds. After they had drained, plants and animals were stored in a climatized chamber (16 hours of light/day, 25° C., 40-60% relative atmospheric humidity). After 3 and 6 days of storage, the effect of the preparation on the aphids was determined.

SMILES | mortality at 10 ppm [1] | mortality at 100 ppm [2]
CON(C)C(=O)NC(=O)c1cnccc1C(F)(F)F [Compound A-313, 1-methyl-1-methoxy-3-(4-trifluoromethyl-3-pyridylcarbonyl)urea] | ≥ 80% | –
CC(C)N(O)C(=O)NC(=O)c1cnccc1C(F)(F)F [Compound A-540, 1-hydroxyl-1-isopropyl-3-(4-trifluoromethyl-3-pyridylcarbonyl)urea] | ≥ 80% | ≥ 50%
O=C(NC(=O)N(CCO)Cc1ccccc1)c1cnccc1C(F)(F)F [Compound A-862, 1-benzyl-1-(2-hydroxyethyl)-3-(4-trifluoromethyl-3-pyridylcarbonyl)urea] | ≥ 80% | ≥ 50%
CN(C(=S)NC(=O)c1cnccc1C(F)(F)F)c1ccccc1 [Compound B-349, 1-methyl-1-phenyl-3-(4-trifluoromethyl-3-pyridylcarbonyl)thiourea] | ≥ 80% | ≥ 50%
C=CCN(C(=O)c1cnccc1C(F)(F)F)C(=O)N(C)OC [Compound E-85, 1-methyl-1-methoxy-3-allyl-3-(4-trifluoromethyl-3-pyridylcarbonyl)urea] | ≥ 80% | ≥ 50%
CC(C)N1OCCN(C(=O)c2cnccc2C(F)(F)F)C1=O [Compound U-3, 2-isopropyl-4-(4-trifluoromethyl-3-pyridylcarbonyl)-perhydro-1,2,4-oxadiazin-3-one] | ≥ 80% | ≥ 50%
O=C(NC(=S)OCC(F)(F)F)c1cnccc1C(F)(F)F [Compound X-45, 2,2,2-trifluoroethyl N-(4-trifluoromethyl-3-pyridylcarbonyl)thiocarbamate] | ≥ 80% | ≥ 50%
